Key:
[1] = system: Pseudomonas aeruginosa ATCC 9027 biofilm; experiment: Activity against biofilms formed on polystyrene 96-well plates, 24 h exposure, resazurin; format: cell-based; conditions: lowest concentration reducing metabolic activity by at least 50 ± 5%; polystyrene plate, 24 h exposure in MHB II, resazurin
Method: (§1) Bacterial strains were obtained from the Polish Collection of Microorganisms (Polish Academy of Science, Wroclaw, Poland). […] The bacteria were cultured in a Mueller Hinton Broth II (MHB, Biocorp, Warsaw, Poland) overnight, under aerobic conditions at 37 °C. After incubation, the liquid cultures were centrifuged (2500 rpm for 10 min) and washed with phosphoric buffer (PBS, AppliChem, Darmstadt, Germany) three times and resuspended in fresh MHB II for inoculums appropriate for the performed assays.
(§2) Bacterial suspensions were added to 96-well plates (Kartell, Noviglio, Italy) at initial inoculums of ca. 5 × 10^8 CFU/mL and incubated under aerobic conditions with shaking (120 rpm) at 37 °C for 24 h. […] After exposure, the wells were washed three times with PBS and a solution of resazurin (Sigma Aldrich, St. Louis, MO, USA) in MHB II (0.01%) was added. This cell viability reagent is metabolized by bacterial dehydrogenases upon contact with living cells. As a result, the blue dye is reduced to a pink resorufin. After 1.5 h of incubation, the absorbance was measured at 570 and 600 nm using a microplate reader (Thermo Fisher Scientific, Waltham, MA, USA). […] The metabolic activity of bacteria in the samples was measured according to the following formula:
(§3) Metabolic activity (%) = (ΔAbs of sample − ΔAbs of negative control)/(ΔAbs of positive control − ΔAbs of negative control);
(§4) ΔAbs = absorbance at 570 nm − absorbance at 600 nm;
(§5) The presented results are the means of nine results obtained on three different days.

[2] = system: Staphylococcus epidermidis ATCC 14990 biofilm; experiment: as above; format: cell-based; conditions: polystyrene plate, 24 h exposure in MHB II, resazurin
Method: as §1, §2, §3, §4, §5

[3] = system: Escherichia coli ATCC 25922 biofilm; experiment: as above; format: cell-based; conditions: polystyrene plate, 24 h exposure in MHB II
Method: as §1, §2, §3, §4, §5

[4] = system: Enterococcus faecalis ATCC 29212 biofilm; experiment: as above; format: cell-based; conditions: polystyrene plate, 24 h exposure in MHB II
Method: as §1, §2, §3, §4, §5

[5] = system: Pseudomonas aeruginosa ATCC 9027 biofilm; experiment: Activity against biofilms on 96-well plates after withdrawal of the antimicrobial (additional 24 h in MHB II); format: cell-based; conditions: lowest concentration giving permanent reduction of metabolic activity by at least 50 ± 5%; after withdrawal and additional 24 h in MHB II
Method: (§6) Bacterial strains were obtained from the Polish Collection of Microorganisms (Polish Academy of Science, Wroclaw, Poland). Three Gram-positive and two Gram-negative strains linked with CL-related infections were chosen for the study (Staphylococus aureus ATCC 6538, Staphylococcus epidermidis ATCC 14990, Pseudomonas aeruginosa ATCC 9027, Escherichia coli ATCC 25922, and Enterococcus faecalis ATCC 29212). The bacteria were cultured in a Mueller Hinton Broth II (MHB, Biocorp, Warsaw, Poland) overnight, under aerobic conditions at 37 °C. […] Bacterial suspensions were added to 96-well plates (Kartell, Noviglio, Italy) at initial inoculums of ca. 5 × 10^8 CFU/mL and incubated under aerobic conditions with shaking (120 rpm) at 37 °C for 24 h. […] After exposure, the wells were washed three times with PBS and a solution of resazurin (Sigma Aldrich, St. […] This cell viability reagent is metabolized by bacterial dehydrogenases upon contact with living cells. As a result, the blue dye is reduced to a pink resorufin. After 1.5 h of incubation, the absorbance was measured at 570 and 600 nm using a microplate reader (Thermo Fisher Scientific, Waltham, MA, USA). […] The procedure was conducted as described in Section 4.3, with the difference that after exposure to antimicrobials, the wells were washed three times with PBS and pure MHB II was added. The samples were incubated for another 24 h (aerobic conditions, 120 rpm shaking, 37 °C). […] The absorbance was measured at the same wave lengths and metabolic activity was calculated according to the formula given in Section 4.3. The presented results are means of nine results obtained on three different days.

[6] = system: Staphylococcus epidermidis ATCC 14990 biofilm; experiment: as above; format: cell-based; conditions: after withdrawal and additional 24 h in MHB II
Method: as §6

[7] = system: Escherichia coli ATCC 25922 biofilm; experiment: as above; format: cell-based; conditions: after withdrawal and additional 24 h in MHB II
Method: as §6

[8] = system: Enterococcus faecalis ATCC 29212 biofilm; experiment: as above; format: cell-based; conditions: after withdrawal and additional 24 h in MHB II; for concentration permanently eradicating the biofilm: EF biofilm on polystyrene
Method: as §6

[9] = system: human cells (keratinocytes, erythrocytes); conditions: cited from earlier work
Source text: PA was also the most difficult strain to eliminate from the surface of CL in the previous study, in which we investigated amphibian peptides and short lipopeptides containing hexadecanoic acid according to their potential application as CL solution additives. The results of performed antimicrobial assays were also very promising. However, due to high toxicity towards human keratinocytes in vitro, the ocular applications of lipopeptides with hexadecanoic acid are not worth further consideration. In contrast to those lipopeptides, the compound with two residues of decanoic aci ... || The excellent antimicrobial activity was previously reported for many lipopeptides. This, along with the relatively low production costs, has encouraged many research groups to study their antimicrobial activities and design molecules with optimal properties. C16-KK-NH2 is one of such extensively studied compounds. […] Other derivatives ...

[10] = lowest concentration reducing metabolic activity by at least 50 ± 5%
[11] = lowest concentration reducing metabolic activity by at least 90 ± 5%, mean of nine results
[12] = lowest concentration giving permanent reduction of metabolic activity by at least 50 ± 5%
[13] = lowest concentration giving permanent reduction of metabolic activity by at least 90 ± 5%

(C10)2-KKKK-NH2 [Lipopeptide]
MBEC 50 [1]: 64 mg/L
MBEC 50 [2, 10]: 16 mg/L
MBEC 90 [2, 11]: 16 mg/L
MBEC 50 [3, 10]: 64 mg/L
MBEC 90 [3, 11]: 64 mg/L
MBEC 50 [4, 10]: 16 mg/L
MBEC 90 [4, 11]: 32 mg/L
MBEC II 50 [5]: 64 µg/mL
concentration giving a permanent antibiofilm effect ([6]; SE biofilm on polystyrene): 16 mg/L
MBEC II 50 [6, 12]: 16 µg/mL
MBEC II 90 [6, 13]: 16 µg/mL
MBEC II 50 [7, 12]: 64 µg/mL
MBEC II 90 [7, 13]: 64 µg/mL
concentration permanently eradicating the biofilm ([8]; listed as (C10)2-KKKK-NH2): 32 mg/L
concentration permanently eradicating the biofilm ([8]; listed as lipopeptide): 32 to 256 mg/L
MBEC II 50 [8, 12]: 32 µg/mL
MBEC II 90 [8, 13]: 32 µg/mL
toxicity towards human cells in vitro [9]: does not exhibit toxicity
